Data reported in US20140107109A1, “AMINO-DIHYDROTHIAZINE AND AMINO-DIOXIDO DIHYDROTHIAZINE COMPOUNDS AS BETA-SECRETASE ANTAGONISTS AND METHODS OF USE” (Amgen Inc., priority 2012, published 2014).

What was measured:
[1] = test system: Aβ40 in conditioned medium of cells stably expressing Amyloid Precursor Protein (APP); assay: In vitro BACE cell-based assay (HEK cell assay), Aβ40 sandwich ELISA; conditions: Homo sapiens, HEK293; average IC50, HEK cell assay
Method in brief: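 APP-stably expressing cells (40K/well, grown 24 h in DMEM/10% FBS) were treated 24 h with compounds in 10-point dose response starting at 100 μM or 10 μM, 0.1% DMSO final. Secreted Aβ40 was measured by sandwich ELISA (pAb40 capture, biotinylated 6E10 detection, europium time-resolved fluorescence); IC50 from percent inhibition.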

[2] = target: Beta Secretase enzyme (BACE1) (Homo sapiens, UniProt P56817); assay: In vitro enzymatic BACE FRET assay; assay type: biochemical; conditions: average IC50, enzyme assay; read-out: BACE1 FRET assay IC50
Chain of Beta Secretase enzyme (BACE1) (P56817 46-501): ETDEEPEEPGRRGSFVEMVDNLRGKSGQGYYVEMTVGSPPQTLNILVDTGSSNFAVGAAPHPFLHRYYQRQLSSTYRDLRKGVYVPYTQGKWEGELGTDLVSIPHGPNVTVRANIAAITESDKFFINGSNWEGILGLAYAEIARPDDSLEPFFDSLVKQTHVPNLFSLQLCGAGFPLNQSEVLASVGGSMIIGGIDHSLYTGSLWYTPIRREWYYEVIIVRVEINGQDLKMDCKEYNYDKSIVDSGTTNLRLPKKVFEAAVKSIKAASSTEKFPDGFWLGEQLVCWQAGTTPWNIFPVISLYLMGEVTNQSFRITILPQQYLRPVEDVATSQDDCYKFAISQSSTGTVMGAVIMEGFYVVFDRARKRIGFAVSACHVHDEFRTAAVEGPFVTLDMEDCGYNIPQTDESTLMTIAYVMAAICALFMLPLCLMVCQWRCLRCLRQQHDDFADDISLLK
Method in brief: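 BACE1 cleavage of a 50 nM fluorophore/quencher peptide FRET substrate ran for one hour in 0.05 M acetate pH 4.2, 10% DMSO, 100 uM genapol. Tris buffer raised pH to neutrality to stop the reaction before fluorescence was read (excitation 488 nm, […]).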

Cathepsin D (Cat D) = target: T1, Cathepsin D (Cat D) (Homo sapiens, UniProt P07339); assay: In vitro enzymatic Cathepsin D (Cat D) FRET assay; assay type: biochemical; conditions: read-out: CatD IC50
T1 construct: Recombinant Cat D was expressed in CHO cells; made in house; host or cells: CHO cells
T1 sequence (P07339 65-412, species assumed): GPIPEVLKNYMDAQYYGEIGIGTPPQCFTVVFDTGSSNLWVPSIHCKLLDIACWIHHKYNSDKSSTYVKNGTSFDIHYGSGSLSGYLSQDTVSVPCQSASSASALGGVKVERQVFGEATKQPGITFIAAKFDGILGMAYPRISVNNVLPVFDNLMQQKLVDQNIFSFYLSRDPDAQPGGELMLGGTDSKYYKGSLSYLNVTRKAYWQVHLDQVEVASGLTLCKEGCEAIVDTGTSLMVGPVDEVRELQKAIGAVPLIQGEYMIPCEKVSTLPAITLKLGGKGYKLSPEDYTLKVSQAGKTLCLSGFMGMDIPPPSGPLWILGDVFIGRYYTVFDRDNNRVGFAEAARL
Method in brief: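 Recombinant Cat D expressed in CHO cells, used at 9 nM and pre-incubated one hour with serially diluted inhibitor in DMSO. Peptide substrate carries a fluorophore and quencher flanking the cleavage site; reaction stopped with Tris buffer raising pH to neutrality, then fluorescence read.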

Q: `Cc1cc(C(F)(F)F)cc(Oc2ccc(F)c([C@]3(C)CS(=O)(=O)C(C)(C)C(N)=N3)c2)n1` [Example 298, (5R)-5-(2-fluoro-5-((6-methyl-4-(trifluoromethyl)-2-pyridinyl)oxy)phenyl)-2,2,5-trimethyl-5,6-dihydro-2H-1,4-thiazin-3-amine 1,1-dioxide] was tested. Which IC50 [1] did it give?
A: 0.737 µM

Q: And the IC50 [2]?
A: 0.106 µM

Q: What about the IC50 (Cathepsin D (Cat D)) of the same molecule?
A: 547 µM

Q: Which IC50 [1] does the source give for `CC1(C)C(N)=N[C@](C)(c2cc(Oc3ncc(Cl)cc3Cl)ccc2F)CS1(=O)=O` [Example 299, (5R)-5-(5-((3,5-dichloro-2-pyridinyl)oxy)-2-fluorophenyl)-2,2,5-trimethyl-5,6-dihydro-2H-1,4-thiazin-3-amine 1,1-dioxide] here?
A: 0.796 µM

Q: And the IC50 [2]?
A: 0.174 µM

Q: And the IC50 (Cathepsin D (Cat D))?
A: 82.4 µM

Q: Which results are given for `CC1(C)C(N)=N[C@](C)(c2cc(Oc3ncc(C(N)=O)cc3F)ccc2F)CS1(=O)=O` [Example 300, 6-(3-((3R)-5-amino-3,6,6-trimethyl 1,1-dioxido-3,6-dihydro-2H-1,4-thiazin-3-yl)-4-fluorophenoxy)-5-fluoro-3-pyridinecarboxamide]?
A: IC50 [1]: 1.18 µM; IC50 [2]: 0.897 µM; IC50 (Cathepsin D (Cat D)): 717 µM

Q: `Cc1nc2c(Oc3ccc(F)c([C@]4(C)CS(=O)(=O)C(C)(C)C(N)=N4)c3)nccc2s1` [Example 302, (5R)-5-(2-fluoro-5-((2-methyl[1,3]thiazolo[4,5-c]pyridin-4-yl)oxy)phenyl)-2,2,5-trimethyl-5,6-dihydro-2H-1,4-thiazin-3-amine 1,1-dioxide] was tested. Which IC50 [1] did it give?
A: 2.87 µM

Q: And the IC50 [2]?
A: 3.49 µM

Q: What about the IC50 (Cathepsin D (Cat D)) of the same molecule?
A: 241 µM

Q: Which IC50 [1] does the source give for `COc1cnc2c(Oc3ccc(F)c([C@]4(C)CS(=O)(=O)C(C)(C)C(N)=N4)c3)nccc2n1` [Example 303, (5R)-5-(2-fluoro-5-((2-methoxypyrido[3,4-b]pyrazin-5-yl)oxy)phenyl)-2,2,5-trimethyl-5,6-dihydro-2H-1,4-thiazin-3-amine 1,1-dioxide] here?
A: 2.54 µM

Q: What about the IC50 [2] of the same molecule?
A: 1.22 µM

Q: And the IC50 (Cathepsin D (Cat D))?
A: 1000 µM

Q: `CC1(C)C(N)=N[C@](C)(c2cc(Oc3nccc4cc(Cl)cnc34)ccc2F)CS1(=O)=O` [Example 304, (5R)-5-(5-((3-chloro-1,7-naphthyridin-8-yl)oxy)-2-fluorophenyl)-2,2,5-trimethyl-5,6-dihydro-2H-1,4-thiazin-3-amine 1,1-dioxide] was tested. Which IC50 [1] did it give?
A: 0.198 µM

Q: And the IC50 [2]?
A: 0.127 µM

Q: What about the IC50 (Cathepsin D (Cat D)) of the same molecule?
A: 282 µM

Q: What does the source list for `CC1(C)C(N)=N[C@](C)(c2cc(Oc3ncccc3C#N)ccc2F)CS1(=O)=O` [Example 306, 2-(3-((3R)-5-amino-3,6,6-trimethyl-1,1-dioxido-3,6-dihydro-2H-1,4-thiazin-3-yl)-4-fluorophenoxy)-3-pyridinecarbonitrile]?
A: IC50 [1]: 0.241 µM; IC50 [2]: 0.256 µM; IC50 (Cathepsin D (Cat D)): 218 µM

Q: How did the IC50 [1] turn out when `CC1(C)C(N)=N[C@](C)(c2cc(Oc3nccc(C#N)c3Cl)ccc2F)CS1(=O)=O` [Example 307, 2-(3-((3R)-5-amino-3,6,6-trimethyl-1,1-dioxido-3,6-dihydro-2H-1,4-thiazin-3-yl)-4-fluorophenoxy)-3-chloro-4-pyridinecarbonitrile] was run?
A: 0.258 µM

Q: What about the IC50 [2] of the same molecule?
A: 0.168 µM

Q: And the IC50 (Cathepsin D (Cat D))?
A: 298 µM

Q: Which results are given for `CC1(C)C(N)=N[C@](C)(c2cc(Oc3c(C#N)ccnc3Cl)ccc2F)CS1(=O)=O` [Example 308, 3-(3-((3R)-5-amino-3,6,6-trimethyl-1,1-dioxido-3,6-dihydro-2H-1,4-thiazin-3-yl)-4-fluorophenoxy)-2-chloro-4-pyridinecarbonitrile]?
A: IC50 [1]: 3.27 µM; IC50 [2]: 4.16 µM; IC50 (Cathepsin D (Cat D)): 224 µM

Q: Which IC50 [1] does the source give for `COc1ccnc(Oc2ccc(F)c([C@]3(C)CS(=O)(=O)C(C)(C)C(N)=N3)c2)n1` [Example 309, (5R)-5-(2-fluoro-5-((4-methoxy-2-pyrimidinyl)oxy)phenyl)-2,2,5-trimethyl-5,6-dihydro-2H-1,4-thiazin-3-amine 1,1-dioxide] here?
A: 0.0751 µM

Q: What about the IC50 [2] of the same molecule?
A: 0.101 µM

Q: And the IC50 (Cathepsin D (Cat D))?
A: 274 µM

Q: Which IC50 [1] does the source give for `Cc1ccnc(Oc2ccc(F)c([C@]3(C)CS(=O)(=O)C(C)(C)C(N)=N3)c2)c1C#N` [Example 310, 2-(3-((3R)-5-amino-3,6,6-trimethyl-1,1-dioxido-3,6-dihydro-2H-1,4-thiazin-3-yl)-4-fluorophenoxy)-4-methyl-3-pyridinecarbonitrile] here?
A: 0.931 µM

Q: And the IC50 [2]?
A: 1.34 µM

Q: What about the IC50 (Cathepsin D (Cat D)) of the same molecule?
A: 444 µM

Q: With `Cc1c(C(F)(F)F)ccnc1Oc1ccc(F)c([C@]2(C)CS(=O)(=O)C(C)(C)C(N)=N2)c1` [Example 311, (5R)-5-(2-fluoro-5-((3-methyl-4-(trifluoromethyl)-2-pyridinyl)oxy)phenyl)-2,2,5-trimethyl-5,6-dihydro-2H-1,4-thiazin-3-amine 1,1-dioxide] as the molecule, how does the IC50 [1] read?
A: 2.39 µM

Q: What about the IC50 [2] of the same molecule?
A: 2.57 µM

Q: What about the IC50 (Cathepsin D (Cat D)) of the same molecule?
A: 401 µM

Q: What does the source list for `CC1(C)C(N)=N[C@](C)(c2cc(Oc3nccc(C(F)(F)F)c3C#N)ccc2F)CS1(=O)=O` [Example 312, 2-(3-((3R)-5-amino-3,6,6-trimethyl-1,1-dioxido-3,6-dihydro-2H-1,4-thiazin-3-yl)-4-fluorophenoxy)-4-(trifluoromethyl)-3-pyridinecarbonitrile]?
A: IC50 [1]: 1.59 µM; IC50 [2]: 2.89 µM; IC50 (Cathepsin D (Cat D)): 771 µM

Q: With `CC1(C)C(N)=N[C@](C)(c2cc(NC(=O)c3cnc(C(F)F)cn3)ccc2F)CS1(=O)=O` [Example 313, N-(3-((3R)-5-amino-3,6,6-trimethyl-1,1-dioxido-3,6-dihydro-2H-1,4-thiazin-3-yl)-4-fluorophenyl)-5-(difluoromethyl)-2-pyrazinecarboxamide] as the molecule, how does the IC50 [1] read?
A: 0.0063 µM

Q: And the IC50 [2]?
A: 0.00292 µM

Q: And the IC50 (Cathepsin D (Cat D))?
A: 887 µM

Q: With `CC1(C)C(N)=N[C@](C)(c2cc(NC(=O)c3cnc(OCC(F)F)cn3)ccc2F)CS1(=O)=O` [Example 314, N-(3-((3R)-5-amino-3,6,6-trimethyl-1,1-dioxido-3,6-dihydro-2H-1,4-thiazin-3-yl)-4-fluorophenyl)-5-(2,2-difluoroethoxy)-2-pyrazinecarboxamide] as the molecule, how does the IC50 [1] read?
A: 0.005 µM

Q: And the IC50 [2]?
A: 0.00058 µM

Q: And the IC50 (Cathepsin D (Cat D))?
A: 504 µM

Q: Which IC50 [1] does the source give for `CC1(C)C(N)=N[C@](C)(c2cc(NC(=O)c3ccc4ccccc4n3)ccc2F)CS1(=O)=O` [Example 315, N-(3-((3R)-5-amino-3,6,6-trimethyl-1,1-dioxido-3,6-dihydro-2H-1,4-thiazin-3-yl)-4-fluorophenyl)-2-quinolinecarboxamide] here?
A: 0.0253 µM

Q: And the IC50 [2]?
A: 0.0376 µM

Q: And the IC50 (Cathepsin D (Cat D))?
A: 253 µM

Q: What does the source list for `CC1(C)C(N)=N[C@](C)(c2cc(NC(=O)c3cnc4ccccc4n3)ccc2F)CS1(=O)=O` [Example 316, N-(3-((3R)-5-amino-3,6,6-trimethyl-1,1-dioxido-3,6-dihydro-2H-1,4-thiazin-3-yl)-4-fluorophenyl)-2-quinoxalinecarboxamide]?
A: IC50 [1]: 0.018 µM; IC50 [2]: 0.0412 µM; IC50 (Cathepsin D (Cat D)): 36.6 µM

Q: With `CC#CCOc1cnc(C(=O)Nc2ccc(F)c([C@]3(C)CS(=O)(=O)[C@@](C)(F)C(N)=N3)c2)cn1` [Example 317, N-(3-((3R,6R)-5-amino-6-fluoro-3,6-dimethyl-1,1-dioxido-3,6-dihydro-2H-1,4-thiazin-3-yl)-4-fluorophenyl)-5-(2-butyn-1-yloxy)-2-pyrazinecarboxamide] as the molecule, how does the IC50 [1] read?
A: 0.0036 µM

Q: And the IC50 [2]?
A: 0.00021 µM

Q: What about the IC50 (Cathepsin D (Cat D)) of the same molecule?
A: > 133 µM

Q: For `COc1ccc(C(=O)Nc2ccc(F)c([C@]3(C)CS(=O)(=O)[C@@](C)(F)C(N)=N3)c2)nc1` [Example 318, N-(3-((3R,6R)-5-amino-6-fluoro-3,6-dimethyl-1,1-dioxido-3,6-dihydro-2H-1,4-thiazin-3-yl)-4-fluorophenyl)-5-methoxy-2-pyridinecarboxamide], which IC50 [1] is on record?
A: 0.0688 µM

Q: And the IC50 [2]?
A: 0.0018 µM

Q: What about the IC50 (Cathepsin D (Cat D)) of the same molecule?
A: > 400 µM

Q: How did the IC50 [1] turn out when `C[C@]1(F)C(N)=N[C@](C)(c2cc(NC(=O)c3ccc(C(F)F)cn3)ccc2F)CS1(=O)=O` [Example 319, N-(3-((3R,6R)-5-amino-6-fluoro-3,6-dimethyl-1,1-dioxido-3,6-dihydro-2H-1,4-thiazin-3-yl)-4-fluorophenyl)-5-(difluoromethyl)-2-pyridinecarboxamide] was run?
A: 0.07 µM

Q: And the IC50 [2]?
A: 0.00162 µM

Q: What about the IC50 (Cathepsin D (Cat D)) of the same molecule?
A: > 400 µM

Q: How did the IC50 [1] turn out when `C[C@]1(F)C(N)=N[C@](C)(c2cc(NC(=O)c3ncc(Cl)cc3F)ccc2F)CS1(=O)=O` [Example 320, N-(3-((3R,6R)-5-amino-6-fluoro-3,6-dimethyl-1,1-dioxido-3,6-dihydro-2H-1,4-thiazin-3-yl)-4-fluorophenyl)-5-chloro-3-fluoro-2-pyridinecarboxamide] was run?
A: 0.0789 µM

Q: What about the IC50 [2] of the same molecule?
A: 0.0008 µM

Q: And the IC50 (Cathepsin D (Cat D))?
A: > 400 µM

Q: With `Cc1cc(OC(F)F)cnc1C(=O)Nc1ccc(F)c([C@]2(C)CS(=O)(=O)[C@@](C)(F)C(N)=N2)c1` [Example 321, N-(3-((3R,6R)-5-amino-6-fluoro-3,6-dimethyl-1,1-dioxido-3,6-dihydro-2H-1,4-thiazin-3-yl)-4-fluorophenyl)-5-(difluoromethoxy)-3-methyl-2-pyridinecarboxamide] as the molecule, how does the IC50 [1] read?
A: 0.0449 µM

Q: And the IC50 [2]?
A: 0.00072 µM

Q: And the IC50 (Cathepsin D (Cat D))?
A: 387 µM

Q: How did the IC50 [1] turn out when `C[C@]1(F)C(N)=N[C@](C)(c2cc(NC(=O)c3ccc(F)cn3)ccc2F)CS1(=O)=O` [Example 322, N-(3-((3R,6R)-5-amino-6-fluoro-3,6-dimethyl-1,1-dioxido-3,6-dihydro-2H-1,4-thiazin-3-yl)-4-fluorophenyl)-5-fluoro-2-pyridinecarboxamide] was run?
A: 0.134 µM

Q: And the IC50 [2]?
A: 0.00195 µM

Q: What about the IC50 (Cathepsin D (Cat D)) of the same molecule?
A: 1220 µM
